Patent US7705188B2 (Arizona Board of Regents, a body corporate of the State of …, priority 2002, dated 2010)
Values after ≈ are worked out from the molar mass of the structure shown. Where two headings read alike, the source gives them in different places.

How the values were obtained:
Candida albicans = experiment: Antimicrobial broth microdilution, MIC; assay type: cell-based; details: read-out: Minimum inhibitory concentration
Text: (§1) Stilbene production has been correlated with the resistance of grape leaves to fungal infection.

Cryptococcus neoformans = experiment: Antimicrobial broth microdilution, MIC; assay type: cell-based; details: read-out: Minimum inhibitory concentration
Text: as §1

Enterobacter cloacae = experiment: Antimicrobial broth microdilution, MIC; assay type: cell-based; details: read-out: Minimum inhibitory concentration
Text: as §1

Enterococcus faecalis = experiment: Antimicrobial broth microdilution, MIC; assay type: cell-based; details: for MIC: read-out: Minimum inhibitory concentration
Text: as §1

Escherichla coli = experiment: Antimicrobial broth microdilution, MIC; assay type: cell-based; details: read-out: Minimum inhibitory concentration
Text: as §1

Micrococcus luteus = experiment: Antimicrobial broth microdilution, MIC; assay type: cell-based; details: read-out: Minimum inhibitory concentration
Text: as §1

Neisseria gonorrhoeae = experiment: Antimicrobial broth microdilution, MIC; assay type: cell-based
Text: as §1

Staphylococcus aureus = experiment: Antimicrobial broth microdilution, MIC; assay type: cell-based; details: read-out: Minimum inhibitory concentration
Text: as §1

[1] = system: Stenotrophomonas maltophilia; experiment: Antimicrobial broth microdilution, MIC; assay type: cell-based; details: read-out: Minimum inhibitory concentration
Text: as §1

Streptococcus pneumoniae = experiment: Antimicrobial broth microdilution, MIC; assay type: cell-based; details: read-out: Minimum inhibitory concentration
Text: as §1

[2] = system: human leukemia HL-60 cell line; details: cited from earlier work
BXPC-3 = experiment: Cytotoxicity, pancreas-a BXPC-3; assay type: cell-based, human
SF-268 = experiment: Cytotoxicity, CNS SF-268; assay type: cell-based, human
NCI-H460 = experiment: Cytotoxicity, lung-NSC NCI-H460; assay type: cell-based, human
KM201.2 = experiment: Cytotoxicity, colon KM201.2; assay type: cell-based, human; details: KM201.2
DU-145 = experiment: Cytotoxicity, prostate DU-145; assay type: cell-based, human
tubulin [3] = experiment: Inhibition of tubulin polymerization; assay type: biochemical; details: for IC50: tubulin 10 μM, extent of assembly after 20 min at 30° C., read-out: Inhibition of tubulin Polymerization IC50 (μM) ± SD; for Inhibition of tubulin assembly, in words: direct comparison with 2a and 2c
Protocol: (§2) Extent of assembly after 20 min at 30° C. was the parameter measured. The colchicine binding assay was performed as earlier reported.^27 The tubulin concentration was 1.0 μM, the [3H] colchicine concentration was 5.0 μM, and the potential inhibitor concentrations were as indicated. Binding of colchicine was measured following a 10 min incubation at 37° C.

tubulin [4] = experiment: Inhibition of [3H]colchicine binding to tubulin; details: for Inhibition of colchicine binding % Inhibition, 2 μM inhibitor / Inhibition of colchicine binding % Inhibition, 5 μM inhibitor: tubulin 1.0 μM, [3H]colchicine 5.0 μM, 10 min at 37° C.
Protocol: as §2

[5] = system: murine CaNT adenocarcinoma; details: six hours after single i.p. injection, 100 mg/kg; cited from earlier work
MCF-7 = experiment: Cytotoxicity, breast MCF-7; assay type: cell-based, human; details: Homo sapiens, MCF7
[6] = system: P-388 and human tumor cell lines; experiment: Cytotoxicity, summary over P-388 and human tumor cell lines; assay type: cell-based
bacteria and fungi = experiment: Antimicrobial evaluation, summary; assay type: cell-based
Text: as §1

[7] = Neisseria gonorrhoeae; read-out: Minimum inhibitory concentration

MIC (Enterococcus faecalis; first line (r12)) | MIC (Enterococcus faecalis; second line (r15)) | MIC (Escherichla coli; Escherichla coli) | MIC (Neisseria gonorrhoeae; [7]) | Structure (SMILES) | MIC (Candida albicans) | MIC (Cryptococcus neoformans) | MIC (Enterobacter cloacae) | MIC (Micrococcus luteus) | MIC (Staphylococcus aureus) | MIC [1] | MIC (Streptococcus pneumoniae) | Pancreas-a BXPC-3 GI50 (BXPC-3) | CNS SF-268 GI50 (SF-268) | Lung-NSC NCI-H460 GI50 (NCI-H460) | Prostate DU-145 GI50 (DU-145) | IC50 (tubulin [3]) | Inhibition of colchicine binding % Inhibition, 2 μM inhibitor (tubulin [4]) | Inhibition of tubulin assembly, in words (tubulin [3]) | Inhibition of colchicine binding, in words (tubulin [4]) | Inhibition of colchicine binding % Inhibition, 5 μM inhibitor (tubulin [4]) | further results
> 64 µg/mL | > 64 µg/mL | > 64 µg/mL | 16 to 32 µg/mL (≈ 70.1 to 140 µM) | Oc1ccc(/C=C/c2cc(O)cc(O)c2)cc1 [Compound 1, 3,4′,5-trihydroxy-trans-stilbene, reference compound] | > 64 µg/mL | > 64 µg/mL | > 64 µg/mL | > 64 µg/mL | > 64 µg/mL | > 64 µg/mL | > 64 µg/mL |  |  |  |  |  |  |  |  |  | Activity against Neisseria gonorrhoeae, in words (Neisseria gonorrhoeae; broth microdilution assays): demonstrated; Apoptosis and Bcl-2 expression [2]: induce apoptosis and decrease expression of Bcl-2
 |  |  |  | COc1ccc(/C=C\c2cc(OC)c(OC)c(OC)c2)cc1O [Compound 2a, combretastatin A-4, reference compound] |  |  |  |  |  |  |  | 0.39 µg/mL | >0.01 µg/mL | 0.0006 µg/mL | 0.0008 µg/mL | 2 ± 0.2 µM | 91% |  |  |  | Colon KM201.2 GI50 (KM201.2): 0.34 µg/mL
 |  |  |  | COc1ccc(/C=C\c2cc(OC)c(OC)c(OC)c2)cc1OP(=O)([O-])[O-].[Na+].[Na+] [Compound 2b, combretastatin A-4 sodium phosphate prodrug] |  |  |  |  |  |  |  |  |  |  |  |  |  |  |  |  | Tumor vascular function shutdown [5]: rapid, irreversible and extensive
 |  |  |  | COc1ccc(C=Cc2cc(OC)cc(OC)c2)cc1 [Compound 4a, 3,4′,5-trimethoxystilbene] | > 64 µg/mL | > 64 µg/mL | > 64 µg/mL | > 64 µg/mL | > 64 µg/mL | > 64 µg/mL | > 64 µg/mL | 0.0034 µg/mL | 0.0044 µg/mL | 0.0028 µg/mL | 0.0054 µg/mL | 1.8 ± 0.3 µM | 88 ± 1% | more inhibitory than 2a | essentially equivalent to 2a | 95 ± 1% | MIC (Enterococcus faecalis): > 64 µg/mL; Minimum inhibitory concentration (Enterococcus faecalis; second line (r15)): * (no inhibition at 64 μg/ml); MIC (Escherichla coli): > 64 µg/mL; MIC (Neisseria gonorrhoeae; Neisseria gonorrhoeae, read-out: Minimum inhibitory concentration): > 64 µg/mL
> 64 µg/mL | > 64 µg/mL | > 64 µg/mL | 32 µg/mL (≈ 118 µM) | COc1ccc(C(=O)c2cc(OC)cc(OC)c2)cc1 [Compound 16a, 3,4′,5-trimethoxybenzophenone] | > 64 µg/mL | > 64 µg/mL | > 64 µg/mL | > 64 µg/mL | > 64 µg/mL | > 64 µg/mL | > 64 µg/mL |  |  |  |  | 2.6 ± 0.3 µM | 47 ± 5% | somewhat less potent than 2c | least activity in both assays | 69 ± 0.3% | GI50 (MCF-7): 21.7 µg/mL (≈ 79.7 µM); Cytotoxicity against cancer cell lines, comparison in words [6]: superior in activity to resveratrol (1); Fold less active (cytotoxicity) than compound 4a ([6]; relative to 4a): 10-100 fold; melting point: 90.3 to 91.6 °C

Structure (SMILES) | MIC (Enterococcus faecalis; first line (r12)) | MIC (Enterococcus faecalis; second line (r15)) | MIC (Escherichla coli; Escherichla coli) | MIC (Neisseria gonorrhoeae; [7]) | MIC (Candida albicans) | MIC (Cryptococcus neoformans) | MIC (Enterobacter cloacae) | MIC (Micrococcus luteus) | MIC (Staphylococcus aureus) | MIC [1] | MIC (Streptococcus pneumoniae) | Pancreas-a BXPC-3 GI50 (BXPC-3) | CNS SF-268 GI50 (SF-268) | Lung-NSC NCI-H460 GI50 (NCI-H460) | Prostate DU-145 GI50 (DU-145) | IC50 (tubulin [3]) | Inhibition of colchicine binding % Inhibition, 2 μM inhibitor (tubulin [4]) | Inhibition of tubulin assembly, in words (tubulin [3]) | Inhibition of colchicine binding, in words (tubulin [4]) | Inhibition of colchicine binding % Inhibition, 5 μM inhibitor (tubulin [4]) | further results
COc1cc(C=Cc2ccc(O)cc2)cc(OC)c1 [Compound 14c, 3,5-dimethoxy-4′-hydroxy-stilbene] | 32 to 64 µg/mL (≈ 125 to 250 µM) | > 64 µg/mL | > 64 µg/mL | 8 µg/mL (≈ 31.2 µM) | 64 µg/mL (≈ 250 µM) | 16 µg/mL (≈ 62.4 µM) | > 64 µg/mL | 8 µg/mL (≈ 31.2 µM) | 32 µg/mL (≈ 125 µM) | > 64 µg/mL | 16 µg/mL (≈ 62.4 µM) |  |  |  |  | 29 ± 9 µM |  |  |  |  | GI50 (BXPC-3; Homo sapiens, BXPC-3, BXPC-3): 12.6 µg/mL (≈ 49.2 µM); GI50 (MCF-7): 3 µg/mL (≈ 11.7 µM); GI50 (SF-268; Homo sapiens, SF-268, SF-268, read-out: CNS SF-268 GI50): 2.2 µg/mL (≈ 8.58 µM); GI50 (NCI-H460; Homo sapiens, NCI-H460, NCI-H460, read-out: Lung-NSC NCI-H460 GI50): 2.8 µg/mL (≈ 10.9 µM); GI50 (KM201.2; Homo sapiens, read-out: Colon KM201.2 GI50): 11.9 µg/mL (≈ 46.4 µM); GI50 (DU-145; Homo sapiens, DU-145, DU-145): 2.3 µg/mL (≈ 8.97 µM); Fold less active than 4a as inhibitor of tubulin assembly (tubulin [3]; relative to 4a): 16 fold; Cytotoxicity against cancer cell lines, comparison in words [6]: comparable to that of resveratrol; Antimicrobial activity, in words (bacteria and fungi): most active of the stilbenes and benzophenones tested
